Reference: US20210246157A1, “CAMPTOTHECIN DERIVATIVES AND PREPARATION METHODS AND APPLICATIONS THEREOF” (priority 2018, published 2021)

Experiments:
[1] = tested on: HT-29; assay: Cytotoxicity test (MTT, 72 h); settings: Homo sapiens, HT-29, 72 h, read-out: 50% Inhibiting Concentration value (IC50)
Experimental: (§1) Cells at logarithmic growth period are inoculated in a 96-well plate overnight, then drugs with a certain gradient concentrations are added, and incubation is carried out in a cell culture chamber (5% CO2, 37° C.) for 72 h.

[2] = tested on: HCT-116; assay: Cytotoxicity test (MTT, 72 h); settings: Homo sapiens, HCT-116, 72 h, read-out: 50% Inhibiting Concentration value (IC50)
Experimental: (§2) In order to investigate the antitumor activities of the compounds, a variety of tumor cell lines for test are selected. Cells at logarithmic growth period are inoculated in a 96-well plate overnight, then drugs with a certain gradient concentrations are added, and incubation is carried out in a cell culture chamber (5% CO2, 37° C.) for 72 h.

[3] = tested on: PANC-1; assay: Cytotoxicity test (MTT, 72 h); settings: Homo sapiens, PANC-1, 72 h, read-out: 50% Inhibiting Concentration value (IC50)
Experimental: as §1

[4] = tested on: BGC-823; assay: Cytotoxicity test (MTT, 72 h); settings: Homo sapiens, BGC-823, 72 h, read-out: 50% Inhibiting Concentration value (IC50)
Experimental: as §2

[5] = In vivo antitumor activity study, mouse weight (Example 19); design: species or system mice

| Compound | IC50 [1] [µM] | IC50 [2] [nM] | IC50 [3] [µM] | IC50 [4] [nM] | Mouse Weight ([5]; day 0, 12.30 mg/kg i.v. once every three days) [g] | Mouse Weight ([5]; day 3, 12.30 mg/kg i.v. once every three days) [g] | Mouse Weight ([5]; day 6, 12.30 mg/kg i.v. once every three days) [g] | Mouse Weight ([5]; day 9, 12.30 mg/kg i.v. once every three days) [g] | Mouse Weight ([5]; day 12, 12.30 mg/kg i.v. once every three days) [g] | Mouse Weight ([5]; day 15, 12.30 mg/kg i.v. once every three days) [g] | Mouse Weight ([5]; day 18, 12.30 mg/kg i.v. once every three days) [g] | Mouse Weight ([5]; day 21, 12.30 mg/kg i.v. once every three days) [g] | Mouse Weight ([5]; day 0, 13.73 mg/kg i.v. once every three days) [g] | Mouse Weight ([5]; day 3, 13.73 mg/kg i.v. once every three days) [g] | Mouse Weight ([5]; day 6, 13.73 mg/kg i.v. once every three days) [g] | Mouse Weight ([5]; day 9, 13.73 mg/kg i.v. once every three days) [g] | Mouse Weight ([5]; day 12, 13.73 mg/kg i.v. once every three days) [g] | Mouse Weight ([5]; day 15, 13.73 mg/kg i.v. once every three days) [g] | Mouse Weight ([5]; day 18, 13.73 mg/kg i.v. once every three days) [g] | Mouse Weight ([5]; day 21, 13.73 mg/kg i.v. once every three days) [g] |
| --- | --- | --- | --- | --- | --- | --- | --- | --- | --- | --- | --- | --- | --- | --- | --- | --- | --- | --- | --- | --- |
| CCc1c2c(nc3ccc(OC(=O)NCCOCc4cn(CCO[C@H]5O[C@@H](CO)[C@H](O)[C@@H](O)[C@@H]5O)nn4)cc13)-c1cc3c(c(=O)n1C2)COC(=O)[C@]3(O)CC [Compound 67] | 5.19 | 235 | 2.91 | 209 | 23.97 | 23.97 | 23.57 | 23.94 | 23.58 | 24.45 | 24.86 | 25.33 |  |  |  |  |  |  |  |  |
| CCc1c2c(nc3ccc(OC(=O)OCCOCCOCCOCc4cn(CCO[C@H]5O[C@@H](CO)[C@H](O)[C@@H](O)[C@@H]5O)nn4)cc13)-c1cc3c(c(=O)n1C2)COC(=O)[C@]3(O)CC [Compound 58] | 5.25 | 2000 | 3.65 | 212 |  |  |  |  |  |  |  |  | 23.57 | 23.71 | 24.00 | 24.76 | 24.93 | 24.34 | 24.04 | 24.12 |
